Data as given in US20160215348A1, “GENE EXPRESSION BIOMARKERS AND THEIR USE FOR DIAGNOSTIC AND PROGNOSTIC APPLICATION IN PATIENTS POTENTIALLY IN NEED OF HDAC INHIBITOR TREATMENT” (4SC AG, priority 2013, published 2016).

What was measured:
ZFP64 [1] = experiment: ZFP64 fold change in HepG2, whole blood and PBMCs of a healthy donor (FIG. 4d); type: cell-based, human; conditions: HepG2, whole blood, PBMC; resminostat 5 μM (combination: + sorafenib 5 μM); vs DMSO control
Description: For comparison reasons, the siRNA experiment (ZFP64 knockdown) on HepG2 cells is shown. The samples are compared to a DMSO control and the fold change is determined with the exception of the siRNA samples, which are compared to the resminostat sample.
To determine RNA expression levels of ZFP64 in different cancer cell lines and PBMC, the cell membranes were chemically disrupted with a buffer containing guanidine isothiocycanate, which lyses the cells and supports the binding of RNA to a silica membrane and RNA was extracted via a filter-based spin column.

DPP3 = experiment: qPCR relative expression (vs cycle 1, day 1, hour 0) in patients' whole blood; type: in vivo, human
Description: (§1) 2.5 ml whole blood from patients was collected in PAXgene™ tubes (BD Biosciences) that contain chemicals to lyse the erythrocytes, stabilize RNA from degradation by RNases and minimize ex vivo changes in gene expression. The samples were incubated at 20° C. to 25° C. for 2 hours and then frozen at −20° C. until purification of total RNA.
(§2) Total RNA was isolated from the whole blood samples stabilized in PAXgene™ buffer using a spin column based technique suitable for whole blood samples (like PAXgene™ Blood miRNA Kit or PAXgene™ Blood RNA Kit from Qiagen) according to the manufacturer's instructions. The purification began with a centrifugation step to pellet nucleic acids in the (PAXgene™ Blood RNA) tube. The resuspended pellet was incubated in buffers, optimized for maintenance of RNA stability together with proteinase K to bring about protein digestion. An additional centrifugation through the PAXgene™ Shredder spin column was carried out to homogenize the cell lysate and remove residual cell debris, and the supernatant of the flow-through fraction was transferred to a fresh microcentrifuge tube. Ethanol was added to adjust binding conditions, and the lysate was applied to a PAXgene™ RNA spin column. During a brief centrifugation, RNA was selectively bound to the PAXgene™ silica membrane as contaminants pass through. Remaining contaminants were removed in several efficient wash steps. Between the first and second wash steps, the membrane was treated with DNase I, as described herein below in 1.3 to remove trace amounts of bound DNA. After the wash steps, RNA was eluted in nuclease free water and heat-denatured.
(§3) The High-Capacity cDNA Reverse Transcription Kit (Applied Biosystems) was used for reverse transcription of total RNA into single stranded cDNA with the aid of random hexamer primers according to the manufacturer's instructions. Briefly, for the reaction mix total RNA was mixed with random primers in excess, 4 mM dNTP Mix, 2.5 U/reaction, reverse transcriptase and nuclease free water. The reverse transcription took place in a thermal cycler under the following conditions: 25° C. for 10 min, 37° C. for 120 min, 85° C. for 5 min, followed by 4° C. for cooling down the reaction. The reverse transcription can be done in principle as well with other reverse transcriptases, primers and temperature protocols. Whenever possible, 250 ng total RNA were reverse transcribed if not available, lower amounts were used.
(§4) Custom TaqMan® Arrays (Applied Biosystems) in Format 16 were designed for the gene expression analysis of biomarkers of the present invention and housekeeping genes as outlined in table 4. These arrays allow for qPCR analysis of 8 samples per card. Of course, all reactions can be done as well by conventional qPCR analysis with specific primers.
(§5) The reaction mix was transferred into the reaction chambers by centrifuging twice for 1 minute each at 330 g and 4° C. After sealing, the microfluidic cards were run on an AB7900HT instrument (Applied Biosystems). The software SDS 2.4 (Applied Biosystems) was employed for instrument control, data acquisition and raw data analysis. The plates were run in Relative Quantification (ΔΔCt) mode, and the following temperature profile was used:
(§6) This analysis was carried out for each patient separately. The first sample (cycle 1, day 1, hour 0) was used as the reference sample. The ‘exprs’ value indicates relative expression levels (fold change values) for individual samples.
(§7) Table 5 contains the median expression level values for treatment day 5 (cycle 1, day 5, hours 0, 2, and 5) at a daily dose of 600 mg or 800 mg Resminostat mesylate salt is given below.

18S = experiment: as above; type: in vivo, human
Description: as §1, §2, §3, §4, §5, §6, §7

ZFP64 [2] = experiment: as above; type: in vivo, human
Description: as §1, §2, §3, §4, §5, §6, §7

KDELC2 = experiment: as above; type: in vivo, human
Description: as §1, §2, §3, §4, §5, §6, §7

GAPDH = experiment: as above; type: in vivo, human
Description: as §1, §2, §3, §4, §5, §6, §7

TBP = experiment: as above; type: in vivo, human
Description: as §1, §2, §3, §4, §5, §6, §7

MICALL1 = experiment: as above; type: in vivo, human
Description: as §1, §2, §3, §4, §5, §6, §7

CCDC43 = experiment: as above; type: in vivo, human
Description: as §1, §2, §3, §4, §5, §6, §7

HIST2H4A; HIST2H4B = experiment: as above; type: in vivo, human
Description: as §1, §2, §3, §4, §5, §6, §7

[3] = cycle 1, day 5, hour 0, 600 mg dose
[4] = cycle 1, day 5, hour 0, 800 mg dose
[5] = cycle 1, day 5, hour 2, 600 mg dose
[6] = cycle 1, day 5, hour 2, 800 mg dose
[7] = cycle 1, day 5, hour 5, 600 mg dose
[8] = cycle 1, day 5, hour 5, 800 mg dose

SMILES: CN(C)Cc1ccc(S(=O)(=O)n2ccc(/C=C/C(=O)NO)c2)cc1 [resminostat, (E)-3-(1-(4-((dimethylamino)methyl)phenylsulfonyl)-1H-pyrrol-3-yl)-N-hydroxyacrylamide]
- Regulation of ZFP64, fold change (FIG. 4d) (ZFP64 [1]): down-regulation
- Median expression level, DPP3 (DPP3; [3]): 1.121
- Median expression level, DPP3 (DPP3; [4]): 1.457
- Median expression level, DPP3 (DPP3; [5]): 0.767
- Median expression level, DPP3 (DPP3; [6]): 0.912
- Median expression level, DPP3 (DPP3; [7]): 0.267
- Median expression level, DPP3 (DPP3; [8]): 0.395
- Median expression level, 18S (18S; [3]): 0.872
- Median expression level, 18S (18S; [4]): 0.635
- Median expression level, 18S (18S; [5]): 0.871
- Median expression level, 18S (18S; [6]): 0.682
- Median expression level, 18S (18S; [7]): 0.778
- Median expression level, 18S (18S; [8]): 0.550
- ZFP64 expression in cancer patients (FIG. 4b) (ZFP64 [2]; blood cells of HCC and HL patients, 600 or 800 mg daily, Day 1 and Day 5): down-regulates
- Median expression level, ZFP64 (ZFP64 [2]; [3]): 0.980
- Median expression level, ZFP64 (ZFP64 [2]; [4]): 1.280
- Median expression level, ZFP64 (ZFP64 [2]; [5]): 0.412
- Median expression level, ZFP64 (ZFP64 [2]; [6]): 0.356
- Median expression level, ZFP64 (ZFP64 [2]; [7]): 0.228
- Median expression level, ZFP64 (ZFP64 [2]; [8]): 0.188
- Median expression level, KDELC2 (KDELC2; [3]): 0.909
- Median expression level, KDELC2 (KDELC2; [4]): 1.141
- Median expression level, KDELC2 (KDELC2; [5]): 0.544
- Median expression level, KDELC2 (KDELC2; [6]): 0.509
- Median expression level, KDELC2 (KDELC2; [7]): 0.215
- Median expression level, KDELC2 (KDELC2; [8]): 0.215
- Median expression level, GAPDH (GAPDH; [3]): 1.092
- Median expression level, GAPDH (GAPDH; [4]): 1.136
- Median expression level, GAPDH (GAPDH; [5]): 1.201
- Median expression level, GAPDH (GAPDH; [6]): 1.362
- Median expression level, GAPDH (GAPDH; [7]): 1.296
- Median expression level, GAPDH (GAPDH; [8]): 1.228
- Median expression level, TBP (TBP; [3]): 0.991
- Median expression level, TBP (TBP; [4]): 1.305
- Median expression level, TBP (TBP; [5]): 0.994
- Median expression level, TBP (TBP; [6]): 1.071
- Median expression level, TBP (TBP; [7]): 1.052
- Median expression level, TBP (TBP; [8]): 1.286
- Median expression level, MICALL1 (MICALL1; [3]): 0.981
- Median expression level, MICALL1 (MICALL1; [4]): 1.024
- Median expression level, MICALL1 (MICALL1; [5]): 0.395
- Median expression level, MICALL1 (MICALL1; [6]): 0.407
- Median expression level, MICALL1 (MICALL1; [7]): 0.201
- Median expression level, MICALL1 (MICALL1; [8]): 0.163
- Median expression level, CCDC43 (CCDC43; [3]): 0.917
- Median expression level, CCDC43 (CCDC43; [4]): 1.391
- Median expression level, CCDC43 (CCDC43; [5]): 0.318
- Median expression level, CCDC43 (CCDC43; [6]): 0.329
- Median expression level, CCDC43 (CCDC43; [7]): 0.378
- Median expression level, CCDC43 (CCDC43; [8]): 0.319
- Median expression level, HIST2H4A; HIST2H4B (HIST2H4A; HIST2H4B; [3]): 0.875
- Median expression level, HIST2H4A; HIST2H4B (HIST2H4A; HIST2H4B; [4]): 1.530
- Median expression level, HIST2H4A; HIST2H4B (HIST2H4A; HIST2H4B; [5]): 2.111
- Median expression level, HIST2H4A; HIST2H4B (HIST2H4A; HIST2H4B; [6]): 3.345
- Median expression level, HIST2H4A; HIST2H4B (HIST2H4A; HIST2H4B; [7]): 2.042
- Median expression level, HIST2H4A; HIST2H4B (HIST2H4A; HIST2H4B; [8]): 2.821
